For the experiment, the target named is T1, purified human HDAC6 (Homo sapiens, UniProt Q9UBN7).
T1 construct: purchased BPS Bioscience 5006
T1 sequence (Q9UBN7 1-1215): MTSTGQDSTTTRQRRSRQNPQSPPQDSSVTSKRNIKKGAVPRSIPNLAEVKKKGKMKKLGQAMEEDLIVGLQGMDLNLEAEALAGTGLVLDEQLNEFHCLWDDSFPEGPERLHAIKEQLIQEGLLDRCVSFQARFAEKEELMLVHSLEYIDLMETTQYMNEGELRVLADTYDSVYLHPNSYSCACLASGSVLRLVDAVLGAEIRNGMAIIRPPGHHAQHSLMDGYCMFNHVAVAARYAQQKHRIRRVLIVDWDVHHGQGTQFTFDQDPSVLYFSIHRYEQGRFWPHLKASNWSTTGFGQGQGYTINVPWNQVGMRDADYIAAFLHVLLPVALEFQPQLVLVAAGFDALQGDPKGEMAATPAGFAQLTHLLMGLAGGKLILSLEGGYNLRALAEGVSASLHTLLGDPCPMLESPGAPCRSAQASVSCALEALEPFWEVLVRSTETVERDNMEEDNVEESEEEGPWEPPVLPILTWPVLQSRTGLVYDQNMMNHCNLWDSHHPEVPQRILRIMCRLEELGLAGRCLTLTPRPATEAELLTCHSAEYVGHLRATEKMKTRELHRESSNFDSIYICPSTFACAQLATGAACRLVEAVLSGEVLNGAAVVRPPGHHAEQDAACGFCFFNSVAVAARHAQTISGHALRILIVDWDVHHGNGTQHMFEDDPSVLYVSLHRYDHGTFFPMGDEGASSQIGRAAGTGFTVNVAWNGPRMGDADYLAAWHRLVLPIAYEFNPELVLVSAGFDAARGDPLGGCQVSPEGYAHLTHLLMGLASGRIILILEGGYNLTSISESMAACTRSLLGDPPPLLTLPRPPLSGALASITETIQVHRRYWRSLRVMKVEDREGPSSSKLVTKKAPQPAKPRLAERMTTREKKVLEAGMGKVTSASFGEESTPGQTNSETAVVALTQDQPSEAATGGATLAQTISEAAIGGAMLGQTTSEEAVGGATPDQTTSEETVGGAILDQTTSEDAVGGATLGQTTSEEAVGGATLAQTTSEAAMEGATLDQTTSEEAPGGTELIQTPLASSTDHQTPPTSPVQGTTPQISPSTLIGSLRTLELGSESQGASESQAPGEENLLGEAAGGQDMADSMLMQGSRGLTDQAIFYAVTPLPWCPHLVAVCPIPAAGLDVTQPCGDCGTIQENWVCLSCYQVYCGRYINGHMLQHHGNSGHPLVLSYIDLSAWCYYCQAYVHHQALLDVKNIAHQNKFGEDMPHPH
Kind of experiment: HDAC6 Enzyme Assay. It counts as biochemical. The note with it: HDAC6 inhibition at a compound concentration of 0.412 μM; read-out: Percent Inhibition at 0.412 μM. On the procedure:
To measure the inhibition of HDAC6 activity, purified human HDAC6 (BPS Bioscience; Cat. No. 5006) is incubated with substrate Ac-Arg-Gly-Lys(Ac)-AMC peptide (Bachem Biosciences; Cat. No. I-1925) for 1 hour at 30° C. in the presence of test compounds or vehicle DMSO control. The reaction is stopped with the HDAC inhibitor trichostatin A (Sigma; Cat. No. T8552) and the amount of Arg-Gly-Lys-AMC generated is quantitated by digestion with trypsin (Sigma; Cat. No. T1426) and subsequent measurement of the amount of AMC released using a fluorescent plate reader (Pherastar; BMG Technologies) set at Ex 340 nm and Em 460 nm. Concentration response curves are generated by calculating the fluorescence increase in test compound-treated samples relative to DMSO-treated controls, and enzyme inhibition (IC50) values are determined from those curves.

In the case of `Cn1c(C(=O)N[C@@H]2CCCc3cc(C(=O)NO)ccc32)cc2ccccc21` [Compound I-64, N-{(1R)-6-[(hydroxyamino)carbonyl]-1,2,3,4-tetrahydronaphthalen-1-yl}-1-methyl-1H-indole-2-carboxamide], the inhibition at 0.412 µM is 18%. `Cn1cccc1C(=O)N[C@@H]1CCCc2cc(C(=O)NO)ccc21` [Compound I-65, (R)-N-(6-(hydroxycarbamoyl)-1,2,3,4-tetrahydronaphthalen-1-yl)-1-methyl-1H-pyrrole-2-carboxamide]: the inhibition at 0.412 µM amounted to 16%. Consider `O=C(NO)c1ccc2c(c1)CCCC2` [Compound I-66, N-hydroxy-5,6,7,8-tetrahydronaphthalene-2-carboxamide], for which the inhibition at 0.412 µM is 49%. Turning to `Cn1cccc1C(=O)N[C@H]1CCCc2cc(C(=O)NO)ccc21` [Compound I-67, N-{(1S)-6-[(hydroxyamino)carbonyl]-1,2,3,4-tetrahydronaphthalen-1-yl}-1-methyl-1H-pyrrole-2-carboxamide], the inhibition at 0.412 µM was found to be 26%. In the case of `COc1ccccc1-c1cc(C(=O)N[C@H]2CCCc3cc(C(=O)NO)ccc32)[nH]n1` [Compound I-68, N-{(1S)-6-[(hydroxyamino)carbonyl]-1,2,3,4-tetrahydronaphthalen-1-yl}-3-(2-methoxyphenyl)-1H-pyrazole-5-carboxamide], the inhibition at 0.412 µM turned out to be 65%.

As for `CC(C)(Oc1ccccc1Cl)C(=O)N[C@H]1CCCc2cc(C(=O)NO)ccc21` [Compound I-69, (5S)-5-{[2-(2-chlorophenoxy)-2-methylpropanoyl]amino}-N-hydroxy-5,6,7,8-tetrahydronaphthalene-2-carboxamide], the inhibition at 0.412 µM was found to be 44%. Regarding `O=C(NO)c1ccc2c(c1)CCC[C@@H]2NC(=O)c1cn2cc(Cl)ccc2n1` [Compound I-70, 6-chloro-N-{(1S)-6-[(hydroxyamino)carbonyl]-1,2,3,4-tetrahydronaphthalen-1-yl}imidazo[1,2-a]pyridine-2-carboxamide], the inhibition at 0.412 µM was 63%. For `O=C(NO)c1ccc2c(c1)CCC[C@@H]2NC(=O)c1cc(-c2ccc(F)cc2)n[nH]1` [Compound I-71, 3-(4-fluorophenyl)-N-{(1S)-6-[(hydroxyamino)carbonyl]-1,2,3,4-tetrahydronaphthalen-1-yl}-1H-pyrazole-5-carboxamide], the inhibition at 0.412 µM is 60%. With `Cc1ccc(-c2cc(C(=O)N[C@H]3CCCc4cc(C(=O)NO)ccc43)[nH]n2)cc1` [Compound I-72, N-{(1S)-6-[(hydroxyamino)carbonyl]-1,2,3,4-tetrahydronaphthalen-1-yl}-3-(4-methylphenyl)-1H-pyrazole-5-carboxamide], the inhibition at 0.412 µM is 54%.

Turning to `CC(C)(C)C(=O)N[C@@H]1CCc2ccc(C(=O)NO)cc2C1` [Compound I-73, (7R)-7-[(2,2-dimethylpropanoyl)amino]-N-hydroxy-5,6,7,8-tetrahydronaphthalene-2-carboxamide], the inhibition at 0.412 µM was 73%. As for `CC1(C)CCC(C)(C)c2cc(C(=O)NO)ccc21` [Compound I-74, N-hydroxy-5,5,8,8-tetramethyl-5,6,7,8-tetrahydronaphthalene-2-carboxamide], the inhibition at 0.412 µM came out at 20%. `CC(C)(C)C(=O)N[C@H]1CCc2ccc(C(=O)NO)cc2C1` [Compound I-75, (7S)-7-[(2,2-dimethylpropanoyl)amino]-N-hydroxy-5,6,7,8-tetrahydronaphthalene-2-carboxamide]: the inhibition at 0.412 µM was found to be 90%. As for `O=C(NO)c1ccc2c(c1)CC(NCc1ccc(Cl)cc1)CC2` (centres unmarked) [Compound I-76, 7-[(4-chlorobenzyl)amino]-N-hydroxy-5,6,7,8-tetrahydronaphthalene-2-carboxamide], the inhibition at 0.412 µM was 80%. `COc1ccc(C(=O)NC2CCc3ccc(C(=O)NO)cc3C2)cc1` (centres unmarked) [Compound I-77, N-hydroxy-7-[(4-methoxybenzoyl)amino]-5,6,7,8-tetrahydronaphthalene-2-carboxamide]: the inhibition at 0.412 µM stood at 92%. Take `CN(C)Cc1cc(C(=O)NC2CCc3ccc(C(=O)NO)cc3C2)cc(C(F)(F)F)c1` (centres unmarked) [Compound I-78, 7-{[3-[(dimethylamino)methyl]-5-(trifluoromethyl)benzoyl]amino}-N-hydroxy-5,6,7,8-tetrahydronaphthalene-2-carboxamide]: the inhibition at 0.412 µM was determined as 88%. In the case of `Cn1cc(-c2cc(C(=O)NC3CCc4ccc(C(=O)NO)cc4C3)cc(C(F)(F)F)c2)cn1` (centres unmarked) [Compound I-79, N-hydroxy-7-{[3-(1-methyl-1H-pyrazol-4-yl)-5-(trifluoromethyl)benzoyl]amino}-5,6,7,8-tetrahydronaphthalene-2-carboxamide], the inhibition at 0.412 µM came to 94%. For `CN(C)C1CCc2ccc(C(=O)NO)cc2C1` (centres unmarked) [Compound I-80, 7-(dimethylamino)-N-hydroxy-5,6,7,8-tetrahydronaphthalene-2-carboxamide], the inhibition at 0.412 µM was 43%. Consider `O=C(NO)c1ccc2c(c1)CC(NCCc1ccccc1)CC2` (centres unmarked) [Compound I-81, N-hydroxy-7-[(2-phenylethyl)amino]-5,6,7,8-tetrahydronaphthalene-2-carboxamide], for which the inhibition at 0.412 µM was determined as 84%. Consider `O=C(NO)c1ccc2c(c1)CC(Nc1cccc(Cl)c1)CC2` (centres unmarked) [Compound I-82, 7-[(3-chlorophenyl)amino]-N-hydroxy-5,6,7,8-tetrahydronaphthalene-2-carboxamide], for which the inhibition at 0.412 µM is 85%.

As for `O=C(NO)c1ccc2c(c1)CC(Nc1ccc(Cl)cc1)CC2` (centres unmarked) [Compound I-83, 7-[(4-chlorophenyl)amino]-N-hydroxy-5,6,7,8-tetrahydronaphthalene-2-carboxamide], the inhibition at 0.412 µM was determined as 86%. The result for `COc1cccc(NC2CCc3ccc(C(=O)NO)cc3C2)c1` (centres unmarked) [Compound I-84, N-hydroxy-7-[(3-methoxyphenyl)amino]-5,6,7,8-tetrahydronaphthalene-2-carboxamide] reads 82%; that for `O=C(NO)c1ccc2c(c1)CC(NCc1ccncc1)CC2` (centres unmarked) [Compound I-85, N-hydroxy-7-[(pyridin-4-ylmethyl)amino]-5,6,7,8-tetrahydronaphthalene-2-carboxamide], 75%. The same measure for `O=C(NO)c1ccc2c(c1)CC(Oc1ccncc1)CC2` (centres unmarked) [Compound I-86, N-hydroxy-7-(pyridin-4-yloxy)-5,6,7,8-tetrahydronaphthalene-2-carboxamide]: 91%; for `O=C(NO)c1ccc2c(c1)CC(Oc1ccccc1)CC2` (centres unmarked) [Compound I-87, N-hydroxy-7-phenoxy-5,6,7,8-tetrahydronaphthalene-2-carboxamide]: 92%; for `O=C(NO)c1ccc2c(c1)CC(c1ccncc1)CC2` (centres unmarked) [Compound I-88, N-hydroxy-7-pyridin-4-yl-5,6,7,8-tetrahydronaphthalene-2-carboxamide]: 89%. For `O=C(NO)c1ccc2c(c1)CC(c1ccccc1)CC2` (centres unmarked) [Compound I-89, N-hydroxy-7-phenyl-5,6,7,8-tetrahydronaphthalene-2-carboxamide], the inhibition at 0.412 µM was 84%. As to `O=C(NO)c1ccc2c(c1)CC(c1ccc(Cl)cc1)CC2` (centres unmarked) [Compound I-90, 7-(4-chlorophenyl)-N-hydroxy-5,6,7,8-tetrahydronaphthalene-2-carboxamide], the inhibition at 0.412 µM is 82%. With `O=C(NO)c1ccc2c(c1)CC(Oc1ccc(Cl)cc1)CC2` (centres unmarked) [Compound I-91, 7-(4-chlorophenoxy)-N-hydroxy-5,6,7,8-tetrahydronaphthalene-2-carboxamide], the inhibition at 0.412 µM came to 93%.

Take `CC(=O)Nc1cccc(C2CCc3ccc(C(=O)NO)cc3C2)c1` (centres unmarked) [Compound I-92, 7-[3-(acetylamino)phenyl]-N-hydroxy-5,6,7,8-tetrahydronaphthalene-2-carboxamide]: the inhibition at 0.412 µM worked out at 92%.

In general, inhibition refers to the relative decrease from the control value, in per cent.

The record behind these values is patent US20140243335A1, “SUBSTITUTED HYDOXAMIC ACIDS AND USES THEREOF” (Millennium Pharmaceuticals, Inc., priority 2010, published 2014).
